Laboratory results taken from PubChem BioAssay AID256 (DTP/NCI, 2004).
“And” between values parts separate entries of the source, which are not always exact repeats. Equal values may be shown once. Toxic doses and inconclusive results are not listed. Rule for the calls: active = survival T/C of 150% or more; inactive = T/C below 125% in these data.

Test system: CD2F1 mice, L1210 leukemia ip, survival T/C
Experiment: NCI In Vivo Anticancer Drug Screen. Data for tumor model L1210 Leukemia (intraperitoneal) in CD2F1 (CDF1) mice
Settings: higher = longer survival
How it was run: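 Compound-dosed mice with transplantable tumor versus matched vehicle controls; endpoint ratio T/C reported.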

[1] = endpoint: mean survival time, dose: 100.0 mg/kg/injection, schedule: Q04DX003 (ip), vehicle: saline with Tween-80
[2] = endpoint: mean survival time, dose: 100.0 mg/kg/injection, schedule: Q01DX009 (ip), vehicle: saline with Tween-80
[3] = endpoint: mean survival time, dose: 200.0 mg/kg/injection, schedule: Q01DX009 (ip), vehicle: saline with Tween-80
[4] = endpoint: mean survival time, dose: 400.0 mg/kg/injection, schedule: Q01DX009 (ip), vehicle: saline with Tween-80
[5] = endpoint: mean survival time, dose: 50.0 mg/kg/injection, schedule: Q01DX009 (ip), vehicle: saline with Tween-80
[6] = endpoint: mean survival time, dose: 200.0 mg/kg/injection, schedule: Q04DX003 (ip), vehicle: saline with Tween-80
[7] = endpoint: mean survival time, dose: 400.0 mg/kg/injection, schedule: Q04DX003 (ip), vehicle: saline with Tween-80
[8] = endpoint: mean survival time, dose: 100.0 mg/kg/injection, schedule: Q04DX002 (ip), vehicle: saline with Tween-80
[9] = endpoint: mean survival time, dose: 200.0 mg/kg/injection, schedule: Q04DX002 (ip), vehicle: saline with Tween-80
[10] = endpoint: mean survival time, dose: 400.0 mg/kg/injection, schedule: Q04DX002 (ip), vehicle: saline with Tween-80
[11] = endpoint: mean survival time, dose: 25.0 mg/kg/injection, schedule: Q04DX002 (ip), vehicle: saline with Tween-80
[12] = endpoint: mean survival time, dose: 50.0 mg/kg/injection, schedule: Q04DX002 (ip), vehicle: saline with Tween-80
[13] = endpoint: mean survival time, dose: 50.0 mg/kg/injection, schedule: Q04DX003 (ip), vehicle: saline
[14] = endpoint: mean survival time, dose: 100.0 mg/kg/injection, schedule: Q04DX003 (ip), vehicle: saline
[15] = endpoint: mean survival time, dose: 200.0 mg/kg/injection, schedule: Q04DX003 (ip), vehicle: saline

Measured: T/C

COC(=O)Nc1cccc(OS(=O)(=O)N(C)C)c1
inactive: [1] 103 % of control

Nc1nc2c(c(=O)[nH]1)N1CCN(c3ccc(C(=O)NC(CCC(=O)O)C(=O)O)cc3)CC1CN2 (configuration not stated)
inactive: endpoint: mean survival time, dose: 100.0 mg/kg/injection, schedule: Q01DX001 (ip), vehicle: sodium bicarbonate 100 % of control | endpoint: mean survival time, dose: 200.0 mg/kg/injection, schedule: Q01DX001 (ip), vehicle: sodium bicarbonate 100 % of control | endpoint: mean survival time, dose: 400.0 mg/kg/injection, schedule: Q01DX001 (ip), vehicle: sodium bicarbonate 86 % of control

Cc1cc2ncn(C(=O)Nc3ccccc3)c2cc1C
inactive: [2] 105 % of control | [3] 94 % of control | [4] 96 % of control

CC(=O)Nc1ncc2ccccc2c1-c1ccc(NC(=O)CN(CCCl)CCCl)cc1
inactive: endpoint: mean survival time, dose: 25.0 mg/kg/injection, schedule: Q04DX003 (ip), vehicle: other 112 % of control | endpoint: mean survival time, dose: 50.0 mg/kg/injection, schedule: Q04DX003 (ip), vehicle: other 116 % of control | endpoint: mean survival time, dose: 100.0 mg/kg/injection, schedule: Q04DX003 (ip), vehicle: other 112 % of control | endpoint: mean survival time, dose: 200.0 mg/kg/injection, schedule: Q04DX003 (ip), vehicle: other 124 % of control

C=C(C)C1C2CC3(C)C4(CO4)C4OC4C3(O)C1C(=O)O2 (configuration not stated)
inactive: endpoint: median survival time, dose: 0.25 mg/kg/injection, schedule: Q01DX009 (ip), vehicle: Klucel (hydroxypropylcellulose) (HPC) 100 % of control | endpoint: median survival time, dose: 0.5 mg/kg/injection, schedule: Q01DX009 (ip), vehicle: Klucel (hydroxypropylcellulose) (HPC) 98 % of control | endpoint: median survival time, dose: 1.0 mg/kg/injection, schedule: Q01DX009 (ip), vehicle: Klucel (hydroxypropylcellulose) (HPC) 103 % of control | endpoint: median survival time, dose: 2.0 mg/kg/injection, schedule: Q01DX009 (ip), vehicle: Klucel (hydroxypropylcellulose) (HPC) 97 % of control

NNC(=O)c1cc2ccccc2cc1O
inactive: [2] 97 % of control | [3] 86 % of control | [4] 94 % of control

Brc1ccc2c(c1)C(Br)c1ccccc1-2 (configuration not stated)
inactive: [5] 105 % of control | [2] 103 % of control | [1] 101 % of control | [3] 100 % of control | [6] 101 % of control

[Cl][Pt+2][Cl].[NH-]c1ccc([N+](=O)[O-])cc1[NH-]
inactive: endpoint: mean survival time, dose: 2.5 mg/kg/injection, schedule: Q01DX009 (ip), vehicle: saline with Tween-80 103 % of control | endpoint: mean survival time, dose: 5.0 mg/kg/injection, schedule: Q01DX009 (ip), vehicle: saline with Tween-80 102 % of control | endpoint: mean survival time, dose: 10.0 mg/kg/injection, schedule: Q01DX009 (ip), vehicle: saline with Tween-80 103 % of control | endpoint: mean survival time, dose: 20.0 mg/kg/injection, schedule: Q01DX009 (ip), vehicle: saline with Tween-80 105 % of control and 107 % of control | endpoint: mean survival time, dose: 40.0 mg/kg/injection, schedule: Q01DX009 (ip), vehicle: saline with Tween-80 106 % of control and 111 % of control | endpoint: mean survival time, dose: 80.0 mg/kg/injection, schedule: Q01DX009 (ip), vehicle: saline with Tween-80 96 % of control

C=C(C)C1CCC2(C(=O)OC)CCC3(C)C(CCC4C5(C)CCC(=O)C(C)(C)C5CCC43C)C12 (configuration not stated)
inactive: endpoint: mean survival time, dose: 100.0 mg/kg/injection, schedule: Q01DX001 (ip), vehicle: Klucel (hydroxypropylcellulose) (HPC) 96 % of control | endpoint: mean survival time, dose: 200.0 mg/kg/injection, schedule: Q01DX001 (ip), vehicle: Klucel (hydroxypropylcellulose) (HPC) 91 % of control | endpoint: mean survival time, dose: 400.0 mg/kg/injection, schedule: Q01DX001 (ip), vehicle: Klucel (hydroxypropylcellulose) (HPC) 94 % of control

O=S(=O)(O)O.[NH-]CC1(C[NH-])CCCCC1.[Pt+2]
inactive: endpoint: mean survival time, dose: 25.0 mg/kg/injection, schedule: Q04DX003 (ip), vehicle: saline 96 % of control | endpoint: median survival time, dose: 15.98 mg/kg/injection, schedule: Q04DX003 (ip), vehicle: dextrose 108 % of control | endpoint: median survival time, dose: 18.0 mg/kg/injection, schedule: Q04DX003 (ip), vehicle: dextrose 93 % of control | endpoint: median survival time, dose: 24.0 mg/kg/injection, schedule: Q04DX003 (ip), vehicle: dextrose 105 % of control

O=C(Nc1cc(Cl)ccc1Cl)c1ccc(C(=O)Nc2cc(Cl)ccc2Cl)cc1
inactive: [2] 94 % of control | [1] 92 % of control | [3] 95 % of control | [6] 96 % of control | [4] 94 % of control | [7] 88 % of control

N#Cc1cccc(CN2CCCNCC2)c1
inactive: endpoint: mean survival time, dose: 12.5 mg/kg/injection, schedule: Q01DX009 (ip), vehicle: water 98 % of control | endpoint: mean survival time, dose: 25.0 mg/kg/injection, schedule: Q01DX009 (ip), vehicle: water 100 % of control | endpoint: mean survival time, dose: 50.0 mg/kg/injection, schedule: Q01DX009 (ip), vehicle: water 96 % of control | endpoint: mean survival time, dose: 100.0 mg/kg/injection, schedule: Q01DX009 (ip), vehicle: water 105 % of control

C1CO[P+]2(O1)OCCO2
inactive: endpoint: mean survival time, dose: 100.0 mg/kg/injection, schedule: Q04DX002 (ip), vehicle: saline 95 % of control | endpoint: mean survival time, dose: 200.0 mg/kg/injection, schedule: Q04DX002 (ip), vehicle: saline 107 % of control | endpoint: mean survival time, dose: 400.0 mg/kg/injection, schedule: Q04DX002 (ip), vehicle: saline 95 % of control

O=C(COc1ccccc1[N+](=O)[O-])CN1C(=O)c2ccccc2C1=O
inactive: [8] 91 % of control | [9] 91 % of control | [10] 91 % of control

CC1(C)COC(C)(C(=O)O)OC1
inactive: [1] 98 % of control | [6] 98 % of control | [7] 96 % of control

O=c1[nH]cc(Br)cc1[N+](=O)[O-]
inactive: [8] 101 % of control | [9] 112 % of control | [10] 108 % of control

CC(C)c1ccc(P(c2ccc(C(C)C)cc2)c2ccc(C(C)C)cc2)cc1
inactive: [11] 103 % of control | [12] 88 % of control | [8] 88 % of control

CC(NC(=O)CNC(=O)OCc1ccccc1)C(=O)O (configuration not stated)
inactive: [1] 98 % of control | [6] 96 % of control | [7] 93 % of control

CC(C)(C)OC(=O)NC(Cc1c[nH]c2ccccc12)C(=O)ON1C(=O)CCC1=O (configuration not stated)
inactive: [1] 95 % of control | [6] 95 % of control

CC(C)(C#N)Nc1ccccc1
inactive: endpoint: mean survival time, dose: 3.13 mg/kg/injection, schedule: Q01DX009 (ip), vehicle: saline 100 % of control | endpoint: mean survival time, dose: 6.25 mg/kg/injection, schedule: Q01DX009 (ip), vehicle: saline with Tween-80 91 % of control | endpoint: mean survival time, dose: 6.25 mg/kg/injection, schedule: Q01DX009 (ip), vehicle: saline 94 % of control | endpoint: mean survival time, dose: 12.5 mg/kg/injection, schedule: Q01DX009 (ip), vehicle: saline with Tween-80 94 % of control

O=C(O)CNC(=O)C(Br)Cc1ccccc1 (configuration not stated)
inactive: [1] 101 % of control | [6] 101 % of control | [7] 103 % of control

CCC(CC(=O)O)c1ccccc1 (configuration not stated)
inactive: [13] 96 % of control | [14] 100 % of control | [15] 102 % of control

O=C1c2ccccc2CCC12OC2c1ccc(Cl)cc1 (configuration not stated)
inactive: [13] 106 % of control | [14] 101 % of control | [15] 101 % of control | endpoint: mean survival time, dose: 400.0 mg/kg/injection, schedule: Q04DX003 (ip), vehicle: saline 98 % of control

CCOC(CC)c1ccccc1 (configuration not stated)
inactive: [5] 103 % of control | [2] 103 % of control | [3] 106 % of control

CCCCC1(C(=O)OCC)SCCCS1
inactive: [12] 94 % of control | [8] 105 % of control | [9] 97 % of control

C1CCC(CCC2CCCC[N-]2)[N-]C1.[I][Zn][I] (configuration not stated)
inactive: endpoint: mean survival time, dose: 25.0 mg/kg/injection, schedule: Q01DX001 (ip), vehicle: saline with Tween-80 107 % of control | endpoint: mean survival time, dose: 50.0 mg/kg/injection, schedule: Q01DX001 (ip), vehicle: saline with Tween-80 86 % of control | endpoint: mean survival time, dose: 100.0 mg/kg/injection, schedule: Q01DX001 (ip), vehicle: saline with Tween-80 86 % of control | endpoint: mean survival time, dose: 100.0 mg/kg/injection, schedule: Q01DX001 (ip), vehicle: saline 103 % of control | endpoint: mean survival time, dose: 200.0 mg/kg/injection, schedule: Q01DX001 (ip), vehicle: saline 100 % of control

[Co].c1ccc2c3[n-]c(c2c1)/N=c1\[n-]/c(c2ccccc12)=N\c1[n-]c(c2ccccc12)/N=c1\[n-]/c(c2ccccc12)=N\3
inactive: [11] 90 % of control | [12] 93 % of control | [8] 90 % of control

COc1ccc2nc3cc(Cl)ccc3c(NCCC[N+](C)(C)CCCCCCCCCCCCCCCC[N+](C)(C)CCCNc3c4ccc(Cl)cc4nc4ccc(OC)cc34)c2c1
inactive: endpoint: mean survival time, dose: 1.56 mg/kg/injection, schedule: Q01DX009 (ip), vehicle: other 96 % of control | endpoint: mean survival time, dose: 3.13 mg/kg/injection, schedule: Q01DX009 (ip), vehicle: other 94 % of control | endpoint: mean survival time, dose: 6.25 mg/kg/injection, schedule: Q01DX009 (ip), vehicle: other 105 % of control
